Results: EP4813977A1, “NOVEL COMPOUND AND USE THEREOF” (Protier Biotech Inc., priority 2023, dated 2025)

How the values were obtained:
Cereblon (CRBN) protein = target: T1, Cereblon (CRBN) protein (Homo sapiens, UniProt Q96SW2); experiment: CRBN binding affinity, E3scan (Eurofins) competition binding with qPCR read-out; conditions: lower % Ctrl = stronger binding, DMSO = 100 % Ctrl, lenalidomide = 0 % Ctrl
T1 construct: purchased Eurofins (E3scan service); host or cells: HEK-293
Experimental: Specifically, CRBN was produced using a HEK-293 cell line and labeled with DNA for qPCR detection. Streptavidin-coated magnetic beads were treated with a biotinylated small-molecule ligand at room temperature for 30 minutes to generate an affinity resin for E3scan analysis. The liganded beads were blocked with excess biotin and washed with a blocking buffer (SeaBlock (Pierce), 1 % BSA, 0.05 % Tween 20, 1 mM DTT) to remove unbound ligands and prevent non-specific binding. […] The test compound was prepared as a 100× stock in 100 % DMSO and diluted directly into the assay solution. All reactions were performed in a polypropylene 384-well plate with a final reaction volume of 0.02 mL. […] The CRBN concentration in the eluate was measured by qPCR. […] A lower '% Ctrl' indicates a stronger binding affinity. […] ((test compound signal−positive control signal)/(negative control signal−positive control signal)) × 100 [formula]

[1] = tested on: T-cell leukemia cell line Jurkat; experiment: Cell viability assay (Cell Counting Kit-8), Jurkat; type: cell-based; conditions: Homo sapiens, 72 hours, CCK-8, absorbance 450 nm
Experimental: To evaluate the cytotoxicity of the compounds synthesized in the Preparation Examples against cancer cells, a cell viability assay following treatment with the synthesized compounds was performed using a T-cell leukemia cell line Jurkat (KCLB, Cat# 40152), a human acute monocytic leukemia cell line MV-4-11 (ATCC, Cat# CRL-9591), and a human multiple myeloma cell line MM.1S (ATCC, Cat# CRL-2974).
As a culture medium for the cell lines, an RPMI medium containing 10 % heat-inactivated FBS and 1 % penicillin/streptomycin (P/S) antibiotics was used. The culture medium was stored refrigerated and warmed in a 37 °C water bath before use. Each cell line was used for the test after a stabilization period of at least 2 weeks after thawing, and cell culture was performed based on information provided by the cell line manufacturer regarding the thawing and subculture conditions.
The Jurkat, MV-4-11, or MM.1S cell line was seeded in a 96-well plate at a density of 1 × 10^4 cells/well and incubated in a 37 °C CO2 incubator overnight. After incubation, a prepared test compound was applied to each cell line, and the cells were incubated in a 37 °C CO2 incubator for 72 hours. After 72 hours of incubation, a Cell Counting Kit-8 (Dojindo, Cat# CK04-20) reagent was added, and the cells were incubated in a 37 °C CO2 incubator. Then, the absorbance was measured at 450 nm using a SpectraMax M3 Microplate Reader (N=2, duplicate measurement). The evaluation concentrations for evaluating the cytotoxicity of the compounds were 10 points: 100 µM, 20 µM, 4 µM, 0.8 µM, 0.16 µM, 0.032 µM, 0.0064 µM, 0.00128 µM, 0.000256 µM, and 0 µM, and the test was performed at 2 wells/concentration point (n=2). A GI50 was derived using a GraphPad Prism program.

O=C1CCC(N2Cc3cc(C(=O)c4ccccc4)ccc3C2=O)C(=O)N1 (centres unmarked) [Compound 1, 3-(5-benzoyl-1-oxoisoindolin-2-yl)piperidine-2,6-dione]
CRBN binding affinity (% Ctrl @ 5µM) (Cereblon (CRBN) protein): C (1 ≤ % Ctrl' < 10)
GI50 [1]: 0.1 to 1 µM

O=C1CCC(N2Cc3nc(C(=O)c4ccccc4)ccc3C2=O)C(=O)N1 (centres unmarked) [Compound 5, 3-(2-benzoyl-5-oxo-5,7-dihydro-6H-pyrrolo[3.4-b]pyridin-6-yl)piperidine-2,6-dione]
CRBN binding affinity (% Ctrl @ 5µM) (Cereblon (CRBN) protein): C (1 ≤ % Ctrl' < 10)

O=C1CCC(N2Cc3cc(C(=O)n4ncc5ccccc54)ccc3C2=O)C(=O)N1 (centres unmarked) [Compound 6, 3-(5-(1H-indazole-1-carbonyl)-1-oxoisoindolin-2-yl)piperidine-2,6-dione]
CRBN binding affinity (% Ctrl @ 5µM) (Cereblon (CRBN) protein): A (0 ≤ '% Ctrl' < 0.1)

O=C1CCC(N2Cc3cc(C(=O)N4CCCC4)ccc3C2=O)C(=O)N1 (centres unmarked) [Compound 7, 3-(1-oxo-5-(pyrrolidine-1-carbonyl)isoindolin-2-yl)piperidine-2,6-dione]
CRBN binding affinity (% Ctrl @ 5µM) (Cereblon (CRBN) protein): A (0 ≤ '% Ctrl' < 0.1)

O=C1CCC(N2Cc3cc(C(=O)c4c[nH]c5ccc(Cl)cc45)ccc3C2=O)C(=O)N1 (centres unmarked) [Compound 8, 3-(5-(5-chloro-1H-indole-3-carbonyl)-1-oxoisoindolin-2-yl)piperidine-2,6-dione]
GI50 [1]: ≤ 0.1 µM

O=C1CCC(N2C(=O)c3ccc(C(=O)c4cc5ccccc5[nH]4)cc3C2=O)C(=O)N1 (centres unmarked) [Compound 10, 2-(2,6-dioxopiperidin-3-yl)-5-(1H-indole-2-carbonyl)isoindoline-1,3-dione]
CRBN binding affinity (% Ctrl @ 5µM) (Cereblon (CRBN) protein): C (1 ≤ % Ctrl' < 10)
GI50 [1]: 1 to 10 µM

O=C1CCC(N2Cc3cc(C(=O)C4CCN(Cc5ccccc5)CC4)ccc3C2=O)C(=O)N1 (centres unmarked) [Compound 11, 3-(5-(1-benzylpiperidine-4-carbonyl)-1-ox.oisoindolin-2-yl)piperidine-2,6-dione]
CRBN binding affinity (% Ctrl @ 5µM) (Cereblon (CRBN) protein): A (0 ≤ '% Ctrl' < 0.1)

O=C1CCC(N2Cc3cc(C(=O)c4ccccn4)ccc3C2=O)C(=O)N1 (centres unmarked) [Compound 12, 3-(1-oxo-5-picolinoylisoindelin-2-yi)piperidine-2,6-dione]
CRBN binding affinity (% Ctrl @ 5µM) (Cereblon (CRBN) protein): A (0 ≤ '% Ctrl' < 0.1)

O=C1CCC(N2Cc3cc(C(=O)c4cccc(Nc5ccccc5)c4)ccc3C2=O)C(=O)N1 (centres unmarked) [Compound 16, 3-(1-oxo-5-(3-(phenylamino)benzoyl)isoindolin-2-yl)piperidine-2,6-dione]
CRBN binding affinity (% Ctrl @ 5µM) (Cereblon (CRBN) protein): A (0 ≤ '% Ctrl' < 0.1)
GI50 [1]: 1 to 10 µM

O=C1CCC(N2Cc3cc(C(=O)c4c[nH]c5ccc(-c6ccccc6)cc45)ccc3C2=O)C(=O)N1 (centres unmarked) [Compound 24, 3-(1-oxo-5-(5-phenyl-1H-indole-3-carbonyl)isoindolin-2-yl)piperidine-2,6-dione]
CRBN binding affinity (% Ctrl @ 5µM) (Cereblon (CRBN) protein): D (10 ≤ '% Ctrl' < 35)

O=C1CCC(N2Cc3cc(C(=O)c4cn(-c5ccccc5)c5ccc(-c6ccccc6)cc45)ccc3C2=O)C(=O)N1 (centres unmarked) [Compound 25, 3-(5-(1,5-diphenyl-1H-indole-3-carbonyl)-1-oxoisoindolin-2-yl)piperidine-2,6-dione]
CRBN binding affinity (% Ctrl @ 5µM) (Cereblon (CRBN) protein): D (10 ≤ '% Ctrl' < 35)

O=C1CCC(N2Cc3cc(C(=O)c4cccc(-c5ccccc5)c4)ccc3C2=O)C(=O)N1 (centres unmarked) [Compound 26, 3-(5-([1,1'-biphenyl]-3-carbonyl)-1-oxoisoindolin-2-yl)piperidine-2,6-dione]
CRBN binding affinity (% Ctrl @ 5µM) (Cereblon (CRBN) protein): A (0 ≤ '% Ctrl' < 0.1)
GI50 [1]: 1 to 10 µM

O=C1CCC(N2Cc3cc(C(=O)c4ccc(-c5ccccc5)[nH]4)ccc3C2=O)C(=O)N1 (centres unmarked) [Compound 28, 3-(1-oxo-5-(5-phenyl-1H-pyrrole-2-carbonyl)isoindolin-2-yl)piperidine-2,6-dione]
CRBN binding affinity (% Ctrl @ 5µM) (Cereblon (CRBN) protein): C (1 ≤ % Ctrl' < 10)
GI50 [1]: 0.1 to 1 µM

O=C1CCC(N2Cc3cc(C(=O)c4cc(-c5ccccc5)cs4)ccc3C2=O)C(=O)N1 (centres unmarked) [Compound 30, 3-(1-oxo-5-(4-phenylthiophene-2-carbonyl)isoindolin-2-yl)piperidine-2,6-dione]
CRBN binding affinity (% Ctrl @ 5µM) (Cereblon (CRBN) protein): A (0 ≤ '% Ctrl' < 0.1)
GI50 [1]: 0.1 to 1 µM

O=C1CCC(N2Cc3cc(C(=O)c4cn(Cc5ccccc5)c5ccccc45)ccc3C2=O)C(=O)N1 (centres unmarked) [Compound 32, 3-(5-(1-benzyl-1H-indole-3-carbonyl)-1-oxoisoindolin-2-yl)piperidine-2.6-dione]
GI50 [1]: 0.1 to 1 µM

O=C1CCC(N2Cc3cc(C(=O)C4CCCC4)ccc3C2=O)C(=O)N1 (centres unmarked) [Compound 39, 3-(5-(cyclopentanecarbonyl)-1-oxoisoindolin-2-yl)piperidine-2,6-dione]
GI50 [1]: 1 to 10 µM

O=C1CCC(N2Cc3cc(C(=O)c4ccc(F)cc4)ccc3C2=O)C(=O)N1 (centres unmarked) [Compound 40, 3-(5-(4-fluorobenzoyl)-1-oxoisoindolin-2-yl)piperidine-2,6-dione]
GI50 [1]: 0.1 to 1 µM

O=C1CCC(N2Cc3cc(C(=O)c4ccc(N5CCCCC5)cc4)ccc3C2=O)C(=O)N1 (centres unmarked) [Compound 41, 3-(1-oxo-5-(4-(piperidin-1-yl)benzoyl)isoindolin-2-yl)piperidine-2,6-dione]
GI50 [1]: 0.1 to 1 µM

O=C1CCC(N2Cc3cc(C(=O)c4cccc5ccccc45)ccc3C2=O)C(=O)N1 (centres unmarked) [Compound 43, 3-(5-(1-naphthoyl)-1-oxoisoindolin-2-yl)piperidine-2,6-dione]
GI50 [1]: 1 to 10 µM

O=C1CCC(N2Cc3cc(C(=O)c4ccc(OC(F)(F)F)cc4)ccc3C2=O)C(=O)N1 (centres unmarked) [Compound 45, 3-(1-oxo-5-(4-(trifluoromethoxy)benzoyl)isoindolin-2-yl)piperidine-2,6-dione]
GI50 [1]: 0.1 to 1 µM

O=C1CCC(N2Cc3cc(C(=O)c4ccc(Cl)cc4)ccc3C2=O)C(=O)N1 (centres unmarked) [Compound 48, 3-(5-(4-chlorobenzoyl)-1-oxoisoindolin-2-yl)piperidine-2,6-dione]
GI50 [1]: 0.1 to 1 µM

O=C1CCC(N2Cc3cc(C(=O)c4ccc(C(F)(F)F)cc4)ccc3C2=O)C(=O)N1 (centres unmarked) [Compound 50, 3-(1-oxo-5-(4-(trifluoromethyl)benzoyl)isoindolin-2-yl)piperidine-2,6-dione]
GI50 [1]: 0.1 to 1 µM

COc1ccc(C(=O)c2ccc3c(c2)CN(C2CCC(=O)NC2=O)C3=O)cc1 (centres unmarked) [Compound 51, 3-(5-(4-methoxybenzoyl)-1-oxoisoindolin-2-yl)piperidine-2,6-dione]
GI50 [1]: 0.1 to 1 µM

O=C1CCC(N2Cc3cc(C(=O)c4ccc(OCc5ccccc5)cc4)ccc3C2=O)C(=O)N1 (centres unmarked) [Compound 53, 3-(5-(4-(benzyloxy)benzoyl)-1-oxoisoindolin-2-yl)piperidine-2,6-dione]
GI50 [1]: 0.1 to 1 µM

Cc1ccc(C(=O)c2ccc3c(c2)CN(C2CCC(=O)NC2=O)C3=O)cc1 (centres unmarked) [Compound 54, 3-(5-(4-methylbenzoyl)-1-oxoisoindolin-2-yl)piperidine-2,6-dione]
GI50 [1]: 0.1 to 1 µM

Cc1cccc(C(=O)c2ccc3c(c2)CN(C2CCC(=O)NC2=O)C3=O)c1 (centres unmarked) [Compound 61, 3-(5-(3-methylbenzoyl)-1-oxoisoindolin-2-yl)piperidine-2,6-dione]
GI50 [1]: ≤ 0.1 µM

Nc1ccc(C(=O)c2ccc3c(c2)CN(C2CCC(=O)NC2=O)C3=O)cc1 (centres unmarked) [Compound 64, 3-(5-(4-aminobenzoyl)-1-oxoisoindolin-2-yl)piperidine-2,6-dione]
GI50 [1]: 0.1 to 1 µM

O=C1CCC(N2Cc3cc(C(=O)c4ccc[nH]4)ccc3C2=O)C(=O)N1 (centres unmarked) [Compound 73, 3-(1-oxo-5-(1H-pyrrole-2-carbonyl)isoindolin-2-yl)piperidine-2,6-dione]
GI50 [1]: ≤ 0.1 µM

O=C1CCC(N2Cc3cc(C(=O)c4ccc5ncsc5c4)ccc3C2=O)C(=O)N1 (centres unmarked) [Compound 76, 3-(5-(benzo[d]thiazole-6-carbonyl)-1-oxoisoindolin-2-yl)piperidine-2,6-dione]
GI50 [1]: ≤ 0.1 µM
